Source: ChEMBL document CHEMBL4507287, “Data for DCP probe MRL-650” (2021)

Key:
[1] = target: Mitogen-activated protein kinase kinase kinase 19 (Homo sapiens) (UniProt Q56UN5); conditions: Compound concentration 1000.0 nM
[2] = target: Receptor-type tyrosine-protein kinase FLT3 (Homo sapiens) (UniProt P36888); conditions: Compound concentration 1000.0 nM
[3] = target: Calcium/calmodulin-dependent protein kinase type 1D (Homo sapiens) (UniProt Q8IU85); conditions: Compound concentration 1000.0 nM
[4] = target: Mitogen-activated protein kinase kinase kinase 9 (Homo sapiens) (UniProt P80192); conditions: Compound concentration 1000.0 nM
[5] = target: MAP kinase-interacting serine/threonine-protein kinase 1 (Homo sapiens) (UniProt Q9BUB5); conditions: Compound concentration 1000.0 nM
[6] = test system: Tyrosine-protein kinase ABL1 (Homo sapiens), P00519 [H396P]; conditions: Compound concentration 1000.0 nM
[7] = test system: Phosphatidylinositol 4,5-bisphosphate 3-kinase catalytic subunit alpha isoform (Homo sapiens), P42336 [E542K]; conditions: Compound concentration 1000.0 nM
[8] = target: Serine/threonine-protein kinase NIM1 (Homo sapiens) (UniProt Q8IY84); conditions: Compound concentration 1000.0 nM
[9] = target: Receptor-interacting serine/threonine-protein kinase 2 (Homo sapiens) (UniProt O43353); conditions: Compound concentration 1000.0 nM
[10] = target: Ribosomal protein S6 kinase alpha-2 (Homo sapiens) (UniProt Q15349); conditions: Compound concentration 1000.0 nM
[11] = test system: Epidermal growth factor receptor (Homo sapiens), P00533 [L861Q]; conditions: Compound concentration 1000.0 nM
[12] = target: Tyrosine-protein kinase ABL1 (Homo sapiens) (UniProt P00519); conditions: Compound concentration 1000.0 nM
[13] = target: NUAK family SNF1-like kinase 1 (Homo sapiens) (UniProt O60285); conditions: Compound concentration 1000.0 nM
[14] = target: Serine/threonine-protein kinase haspin (Homo sapiens) (UniProt Q8TF76); conditions: Compound concentration 1000.0 nM
[15] = target: Serine/threonine-protein kinase PRP4 homolog (Homo sapiens) (UniProt Q13523); conditions: Compound concentration 1000.0 nM
[16] = target: Serine/threonine-protein kinase DCLK1 (Homo sapiens) (UniProt O15075); conditions: Compound concentration 1000.0 nM
[17] = target: Serine/threonine-protein kinase VRK2 (Homo sapiens) (UniProt Q86Y07); conditions: Compound concentration 1000.0 nM
[18] = target: SRSF protein kinase 1 (Homo sapiens) (UniProt Q96SB4); conditions: Compound concentration 1000.0 nM
[19] = target: Dual specificity mitogen-activated protein kinase kinase 3 (Homo sapiens) (UniProt P46734); conditions: Compound concentration 1000.0 nM
[20] = target: Serine/threonine-protein kinase tousled-like 1 (Homo sapiens) (UniProt Q9UKI8); conditions: Compound concentration 1000.0 nM
[21] = target: Receptor tyrosine-protein kinase erbB-2 (Homo sapiens) (UniProt P04626); conditions: Compound concentration 1000.0 nM
[22] = target: Activin receptor type-1-like (Homo sapiens) (UniProt P37023); conditions: Compound concentration 1000.0 nM
[23] = test system: Phosphatidylinositol 4,5-bisphosphate 3-kinase catalytic subunit alpha isoform (Homo sapiens), P42336 [I800L]; conditions: Compound concentration 1000.0 nM
[24] = target: Serine/threonine-protein kinase PLK4 (Homo sapiens) (UniProt O00444); conditions: Compound concentration 1000.0 nM
[25] = target: Transient receptor potential cation channel subfamily M member 6 (Homo sapiens) (UniProt Q9BX84); conditions: Compound concentration 1000.0 nM
[26] = target: Serine/threonine-protein kinase STK11 (Homo sapiens) (UniProt Q15831); conditions: Compound concentration 1000.0 nM
[27] = target: Serine/threonine-protein kinase 32A (Homo sapiens) (UniProt Q8WU08); conditions: Compound concentration 1000.0 nM
[28] = target: Serine/threonine-protein kinase D2 (Homo sapiens) (UniProt Q9BZL6); conditions: Compound concentration 1000.0 nM
[29] = target: Calcium/calmodulin-dependent protein kinase kinase 2 (Homo sapiens) (UniProt Q96RR4); conditions: Compound concentration 1000.0 nM
[30] = target: Serine/threonine-protein kinase ULK1 (Homo sapiens) (UniProt O75385); conditions: Compound concentration 1000.0 nM
[31] = target: Interleukin-1 receptor-associated kinase 1 (Homo sapiens) (UniProt P51617); conditions: Compound concentration 1000.0 nM
[32] = target: Phosphatidylinositol 4,5-bisphosphate 3-kinase catalytic subunit delta isoform (Homo sapiens) (UniProt O00329); conditions: Compound concentration 1000.0 nM
[33] = target: Cyclin-dependent kinase 11A (Homo sapiens) (UniProt Q9UQ88); conditions: Compound concentration 1000.0 nM
[34] = test system: ALK tyrosine kinase receptor (Homo sapiens), Q9UM73 [L1196M]; conditions: Compound concentration 1000.0 nM
[35] = target: Alpha-1D adrenergic receptor (Homo sapiens) (UniProt P25100); conditions: Compound concentration 10.0 uM
[36] = target: Cyclin-dependent kinase 18 (Homo sapiens) (UniProt Q07002); conditions: Compound concentration 1000.0 nM
[37] = target: Myosin light chain kinase, smooth muscle (Homo sapiens) (UniProt Q15746); conditions: Compound concentration 1000.0 nM
[38] = target: Sigma intracellular receptor 2 (Homo sapiens, UniProt Q5BJF2); conditions: Compound concentration 10.0 uM
[39] = target: Phosphatidylinositol 4-phosphate 5-kinase type-1 alpha (Homo sapiens) (UniProt Q99755); conditions: Compound concentration 1000.0 nM
[40] = target: Phosphatidylinositol 4-kinase beta (Homo sapiens) (UniProt Q9UBF8); conditions: Compound concentration 1000.0 nM
[41] = target: Ribosomal protein S6 kinase alpha-4 (Homo sapiens) (UniProt O75676); conditions: Compound concentration 1000.0 nM
Nociceptin receptor = Nociceptin receptor (Homo sapiens, UniProt P41146); test: GPCRScan assay: inhibition of NOP; design: radioligand conc. used [nm] 0.5 – 2.0, parental cells HEKT
[42] = target: Serine/threonine-protein kinase N2 (Homo sapiens) (UniProt Q16513); conditions: Compound concentration 1000.0 nM
[43] = target: Mitogen-activated protein kinase kinase kinase 5 (Homo sapiens) (UniProt Q99683); conditions: Compound concentration 1000.0 nM
[44] = target: Ephrin type-A receptor 2 (Homo sapiens) (UniProt P29317); conditions: Compound concentration 1000.0 nM

Sequence of Nociceptin receptor (P41146 whole entry): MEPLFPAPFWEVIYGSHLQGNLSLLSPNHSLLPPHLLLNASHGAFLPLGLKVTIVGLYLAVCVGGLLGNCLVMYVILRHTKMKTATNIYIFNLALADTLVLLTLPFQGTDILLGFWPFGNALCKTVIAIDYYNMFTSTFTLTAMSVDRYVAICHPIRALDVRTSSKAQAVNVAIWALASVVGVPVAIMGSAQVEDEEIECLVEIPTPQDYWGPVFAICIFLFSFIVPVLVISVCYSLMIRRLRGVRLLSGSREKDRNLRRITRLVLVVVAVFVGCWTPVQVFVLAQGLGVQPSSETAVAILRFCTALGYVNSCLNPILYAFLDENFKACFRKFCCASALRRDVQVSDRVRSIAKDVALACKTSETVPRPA
Sequence of Calcium/calmodulin-dependent protein kinase kinase 2 (Homo sapiens) (Q96RR4 2-588 limits assumed): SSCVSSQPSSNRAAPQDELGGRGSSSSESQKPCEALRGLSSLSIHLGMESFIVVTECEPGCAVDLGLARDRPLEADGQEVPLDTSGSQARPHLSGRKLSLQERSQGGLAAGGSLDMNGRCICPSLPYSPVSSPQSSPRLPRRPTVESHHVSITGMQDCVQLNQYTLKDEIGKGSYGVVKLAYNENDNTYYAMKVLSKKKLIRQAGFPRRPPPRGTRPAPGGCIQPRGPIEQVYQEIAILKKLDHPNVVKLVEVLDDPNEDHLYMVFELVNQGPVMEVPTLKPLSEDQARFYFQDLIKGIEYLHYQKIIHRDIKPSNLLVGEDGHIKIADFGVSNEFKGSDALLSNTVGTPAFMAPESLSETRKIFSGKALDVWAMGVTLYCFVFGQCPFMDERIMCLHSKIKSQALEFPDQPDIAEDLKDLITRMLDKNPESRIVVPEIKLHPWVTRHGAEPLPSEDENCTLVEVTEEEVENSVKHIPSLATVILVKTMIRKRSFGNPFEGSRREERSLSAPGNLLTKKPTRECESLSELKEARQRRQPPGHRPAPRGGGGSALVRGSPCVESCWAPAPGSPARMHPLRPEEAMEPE
Sequence of Serine/threonine-protein kinase haspin (Homo sapiens) (Q8TF76 whole entry): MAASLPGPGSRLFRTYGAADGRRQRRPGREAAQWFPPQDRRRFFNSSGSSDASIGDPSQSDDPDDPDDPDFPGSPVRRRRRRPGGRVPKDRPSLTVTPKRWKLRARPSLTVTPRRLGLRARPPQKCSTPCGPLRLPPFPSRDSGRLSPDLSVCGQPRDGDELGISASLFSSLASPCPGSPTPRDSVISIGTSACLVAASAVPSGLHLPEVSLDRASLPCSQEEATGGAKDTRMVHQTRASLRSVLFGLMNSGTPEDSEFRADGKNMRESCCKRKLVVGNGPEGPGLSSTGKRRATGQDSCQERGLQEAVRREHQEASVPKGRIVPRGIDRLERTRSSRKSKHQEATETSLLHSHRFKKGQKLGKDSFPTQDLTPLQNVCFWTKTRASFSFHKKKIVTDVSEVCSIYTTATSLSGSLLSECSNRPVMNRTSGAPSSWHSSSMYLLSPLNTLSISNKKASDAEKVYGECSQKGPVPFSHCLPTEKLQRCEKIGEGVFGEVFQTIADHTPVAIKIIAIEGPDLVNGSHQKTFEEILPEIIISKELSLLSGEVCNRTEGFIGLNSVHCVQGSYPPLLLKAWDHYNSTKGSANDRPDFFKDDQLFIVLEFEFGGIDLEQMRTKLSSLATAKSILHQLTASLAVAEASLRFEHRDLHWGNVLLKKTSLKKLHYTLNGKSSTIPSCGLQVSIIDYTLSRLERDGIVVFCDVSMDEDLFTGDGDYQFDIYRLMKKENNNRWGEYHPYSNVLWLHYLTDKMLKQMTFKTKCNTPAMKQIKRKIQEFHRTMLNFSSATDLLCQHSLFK
Sequence of Serine/threonine-protein kinase 32A (Homo sapiens) (Q8WU08 whole entry): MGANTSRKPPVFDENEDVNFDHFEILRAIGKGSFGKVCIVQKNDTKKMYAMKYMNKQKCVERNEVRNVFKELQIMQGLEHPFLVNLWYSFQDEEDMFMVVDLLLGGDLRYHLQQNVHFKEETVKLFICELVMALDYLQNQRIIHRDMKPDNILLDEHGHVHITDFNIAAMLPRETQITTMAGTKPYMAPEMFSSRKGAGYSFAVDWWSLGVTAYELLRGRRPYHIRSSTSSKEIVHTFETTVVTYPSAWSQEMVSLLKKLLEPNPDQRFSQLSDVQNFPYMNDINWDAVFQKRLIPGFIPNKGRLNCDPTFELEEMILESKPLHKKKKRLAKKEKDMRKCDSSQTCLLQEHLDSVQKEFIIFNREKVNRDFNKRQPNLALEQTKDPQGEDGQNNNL
Sequence of Serine/threonine-protein kinase VRK2 (Homo sapiens) (Q86Y07 whole entry): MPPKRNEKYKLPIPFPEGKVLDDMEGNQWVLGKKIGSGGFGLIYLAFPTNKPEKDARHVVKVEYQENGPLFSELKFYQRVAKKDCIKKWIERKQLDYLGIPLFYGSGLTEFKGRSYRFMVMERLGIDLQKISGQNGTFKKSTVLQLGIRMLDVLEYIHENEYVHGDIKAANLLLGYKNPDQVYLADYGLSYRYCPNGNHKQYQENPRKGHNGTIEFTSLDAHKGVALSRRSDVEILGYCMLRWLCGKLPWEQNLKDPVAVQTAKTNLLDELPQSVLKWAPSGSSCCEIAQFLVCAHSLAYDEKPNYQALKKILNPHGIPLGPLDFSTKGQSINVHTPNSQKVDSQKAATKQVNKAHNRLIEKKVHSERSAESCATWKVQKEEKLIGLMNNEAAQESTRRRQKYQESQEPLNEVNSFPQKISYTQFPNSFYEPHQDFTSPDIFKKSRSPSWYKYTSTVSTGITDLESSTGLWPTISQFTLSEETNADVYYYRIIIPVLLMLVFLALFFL
Sequence of Ribosomal protein S6 kinase alpha-2 (Homo sapiens) (Q15349 whole entry): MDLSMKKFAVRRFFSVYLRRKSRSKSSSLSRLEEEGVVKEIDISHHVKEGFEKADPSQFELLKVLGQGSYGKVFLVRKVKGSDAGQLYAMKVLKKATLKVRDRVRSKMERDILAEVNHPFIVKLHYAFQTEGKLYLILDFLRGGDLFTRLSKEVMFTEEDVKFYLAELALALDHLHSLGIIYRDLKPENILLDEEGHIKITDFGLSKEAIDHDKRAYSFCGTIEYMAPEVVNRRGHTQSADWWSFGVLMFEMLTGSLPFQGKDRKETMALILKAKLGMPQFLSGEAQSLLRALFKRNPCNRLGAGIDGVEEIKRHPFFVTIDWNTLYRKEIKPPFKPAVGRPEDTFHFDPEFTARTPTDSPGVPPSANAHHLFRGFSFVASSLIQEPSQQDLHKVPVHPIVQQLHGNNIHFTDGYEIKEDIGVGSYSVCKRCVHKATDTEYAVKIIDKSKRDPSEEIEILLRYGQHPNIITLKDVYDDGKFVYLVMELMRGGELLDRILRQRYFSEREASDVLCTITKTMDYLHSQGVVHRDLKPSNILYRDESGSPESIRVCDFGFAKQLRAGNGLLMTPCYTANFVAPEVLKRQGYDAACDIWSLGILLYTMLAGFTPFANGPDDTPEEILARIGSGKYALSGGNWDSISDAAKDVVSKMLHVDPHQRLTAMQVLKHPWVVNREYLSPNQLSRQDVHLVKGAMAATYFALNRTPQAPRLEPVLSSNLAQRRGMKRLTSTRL
Sequence of Dual specificity mitogen-activated protein kinase kinase 3 (Homo sapiens) (P46734 whole entry): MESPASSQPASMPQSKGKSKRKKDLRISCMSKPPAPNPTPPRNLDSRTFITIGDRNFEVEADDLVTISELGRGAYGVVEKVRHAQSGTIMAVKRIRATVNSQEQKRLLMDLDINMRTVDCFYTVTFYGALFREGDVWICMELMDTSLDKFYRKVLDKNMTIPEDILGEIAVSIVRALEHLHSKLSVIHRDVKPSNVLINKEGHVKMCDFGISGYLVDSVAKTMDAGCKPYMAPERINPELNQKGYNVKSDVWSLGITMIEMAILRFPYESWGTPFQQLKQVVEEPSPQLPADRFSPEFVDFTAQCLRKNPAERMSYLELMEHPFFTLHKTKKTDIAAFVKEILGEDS
Sequence of Receptor-interacting serine/threonine-protein kinase 2 (Homo sapiens) (O43353 whole entry): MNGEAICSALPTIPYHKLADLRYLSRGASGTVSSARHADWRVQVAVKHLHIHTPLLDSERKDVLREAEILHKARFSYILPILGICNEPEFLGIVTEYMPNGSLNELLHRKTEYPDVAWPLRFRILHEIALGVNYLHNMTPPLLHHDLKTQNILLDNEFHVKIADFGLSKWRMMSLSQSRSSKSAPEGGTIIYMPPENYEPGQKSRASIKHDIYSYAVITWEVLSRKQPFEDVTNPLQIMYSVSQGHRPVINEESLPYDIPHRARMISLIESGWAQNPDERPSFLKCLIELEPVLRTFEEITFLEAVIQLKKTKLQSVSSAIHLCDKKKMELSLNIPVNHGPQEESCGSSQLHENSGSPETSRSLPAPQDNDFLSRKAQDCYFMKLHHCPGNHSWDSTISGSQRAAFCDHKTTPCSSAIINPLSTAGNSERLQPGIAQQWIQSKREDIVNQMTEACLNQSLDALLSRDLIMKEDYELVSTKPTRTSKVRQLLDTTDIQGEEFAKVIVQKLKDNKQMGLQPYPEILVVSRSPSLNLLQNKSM
Sequence of Serine/threonine-protein kinase STK11 (Homo sapiens) (Q15831 whole entry): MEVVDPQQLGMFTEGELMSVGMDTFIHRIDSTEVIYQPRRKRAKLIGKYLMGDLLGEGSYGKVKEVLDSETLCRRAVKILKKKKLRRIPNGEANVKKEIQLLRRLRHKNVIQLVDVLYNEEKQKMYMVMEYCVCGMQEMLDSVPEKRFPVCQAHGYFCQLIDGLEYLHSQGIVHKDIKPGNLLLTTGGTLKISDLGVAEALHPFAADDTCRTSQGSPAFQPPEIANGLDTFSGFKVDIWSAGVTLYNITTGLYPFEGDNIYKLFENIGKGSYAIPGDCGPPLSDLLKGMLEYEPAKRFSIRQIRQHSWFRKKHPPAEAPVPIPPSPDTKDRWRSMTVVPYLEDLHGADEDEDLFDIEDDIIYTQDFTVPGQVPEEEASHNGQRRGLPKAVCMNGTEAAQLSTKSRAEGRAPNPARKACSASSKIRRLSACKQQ
Sequence of Sigma intracellular receptor 2 (Q5BJF2 whole entry): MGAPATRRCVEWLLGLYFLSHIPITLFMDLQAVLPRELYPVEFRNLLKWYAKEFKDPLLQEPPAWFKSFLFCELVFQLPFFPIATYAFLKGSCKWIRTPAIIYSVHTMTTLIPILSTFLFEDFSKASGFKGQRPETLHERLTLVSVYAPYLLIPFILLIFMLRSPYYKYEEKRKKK

CC(=O)Nc1c(C(C)=O)c(=O)n(C)c2nc(-c3ccc(Cl)cc3Cl)c(-c3ccc(Cl)cc3)cc12 [NAPHTHYRIDINONE]
residual activity [1]: 100%
residual activity [2]: 100%
residual activity [3]: 100%
residual activity [4]: 100%
residual activity [5]: 100%
residual activity [6]: 100%
residual activity [7]: 94%
residual activity [8]: 100%
residual activity [9]: 100%
residual activity [10]: 100%
residual activity [11]: 100%
residual activity [12]: 85%
residual activity [13]: 100%
residual activity [14]: 100%
residual activity [15]: 100%
residual activity [16]: 100%
residual activity [17]: 100%
residual activity [18]: 100%
residual activity [19]: 86%
residual activity [20]: 100%
residual activity [21]: 100%
residual activity [22]: 100%
residual activity [23]: 58%
residual activity [24]: 100%
residual activity [25]: 100%
residual activity [26]: 43%
residual activity [27]: 82%
residual activity [28]: 100%
residual activity [29]: 100%
residual activity [30]: 66%
residual activity [31]: 97%
residual activity [32]: 100%
residual activity [33]: 100%
residual activity [34]: 100%
inhibition [35]: -3.09%
residual activity [36]: 100%
residual activity [37]: 100%
inhibition [38]: 54.6%
residual activity [39]: 100%
residual activity [40]: 100%
residual activity [41]: 100%
Ki (Nociceptin receptor): 10 µM
pKi (Nociceptin receptor): 5
residual activity [42]: 100%
residual activity [43]: 100%
residual activity [44]: 100%

CC(=O)c1c(NS(C)(=O)=O)c2cc(-c3ccc(Cl)cc3)c(-c3ccc(Cl)cc3Cl)nc2n(C)c1=O [MRL-CB1-NC]
residual activity [1]: 85%
residual activity [2]: 96%
residual activity [3]: 100%
residual activity [4]: 100%
residual activity [5]: 100%
residual activity [6]: 100%
residual activity [7]: 76%
residual activity [8]: 81%
residual activity [9]: 96%
residual activity [10]: 80%
residual activity [11]: 100%
residual activity [12]: 91%
residual activity [13]: 86%
residual activity [14]: 92%
residual activity [15]: 83%
residual activity [16]: 98%
residual activity [17]: 100%
residual activity [18]: 100%
residual activity [19]: 96%
residual activity [20]: 95%
residual activity [21]: 100%
residual activity [22]: 100%
residual activity [23]: 64%
residual activity [24]: 100%
residual activity [25]: 100%
residual activity [26]: 100%
residual activity [27]: 87%
residual activity [28]: 88%
residual activity [29]: 100%
residual activity [30]: 67%
residual activity [31]: 92%
residual activity [32]: 100%
residual activity [33]: 98%
residual activity [34]: 97%
inhibition [35]: 15.9%
residual activity [36]: 100%
residual activity [37]: 93%
inhibition [38]: 17.6%
residual activity [39]: 97%
residual activity [40]: 74%
residual activity [41]: 87%
inhibition (Nociceptin receptor; Compound concentration 10.0 uM): -2.4%
residual activity [42]: 76%
residual activity [43]: 85%
residual activity [44]: 100%
